Consider 24 compounds from US20240247015A1, “PHOSPHORUS DERIVATIVES AS NOVEL SOS1 INHIBITORS” (BAYER AKTIENGESELLSCHAFT, priority 2021, published 2024).

The target of the assay is interaction of human SOS1 (SOS1) with human K-RasG12C (Homo sapiens (Human), UniProt Q07889). Briefly: Biochemical assay: hK-RasG12C interaction assay with hSOS1 (HTRF). It counts as binding. As to conditions: GST-hK-RasG12C with His-hSOS1, 60 min incubation at 20° C., mean, read-out: K-RasG12C - SOS interaction assay IC50 (mean). In outline: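 Compounds, duplicates at 11 concentrations from 0.073 nM to 20 µM, were preincubated 2 min with 10 nM GST-hK-RasG12C, then 20 nM His-hSOS1 was added, all at 20 °C. After 60 min, 665/620 nm HTRF ratio normalized to DMSO and SOS1-free controls; IC50 by 4-parameter fit.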
Sequence of interaction of human SOS1 (SOS1) with human K-RasG12C (Q07889 564-1049 limits assumed): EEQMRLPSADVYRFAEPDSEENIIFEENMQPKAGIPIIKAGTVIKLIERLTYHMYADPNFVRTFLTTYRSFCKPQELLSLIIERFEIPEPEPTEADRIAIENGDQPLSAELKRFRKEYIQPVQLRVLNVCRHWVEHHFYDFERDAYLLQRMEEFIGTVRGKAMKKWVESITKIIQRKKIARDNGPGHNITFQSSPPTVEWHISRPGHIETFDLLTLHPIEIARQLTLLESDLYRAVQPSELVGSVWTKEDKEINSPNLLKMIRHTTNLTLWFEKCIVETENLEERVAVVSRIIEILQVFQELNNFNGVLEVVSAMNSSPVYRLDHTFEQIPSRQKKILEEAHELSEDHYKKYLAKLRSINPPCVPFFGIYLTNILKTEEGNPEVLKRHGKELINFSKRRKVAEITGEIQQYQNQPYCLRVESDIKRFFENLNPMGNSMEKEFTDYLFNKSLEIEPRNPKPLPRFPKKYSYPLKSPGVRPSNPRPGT
In general terms: In TR-FRET formats the signal depends on donor and acceptor labels being close together.
In general, IC50 refers to the midpoint of a concentration-inhibition curve. Take `CC(=O)N1CCP(=O)(c2cc3c(N[C@H](C)c4cccc(C(F)(F)F)c4F)nc(C)nc3cn2)CC1` [Example 142, 1-acetyl-4-[4-{{(1R)-1-[2-fluoro-3-(trifluoromethyl)phenyl]ethyl}amino)-2-methylpyrido[3,4-d]pyrimidin-6-yl]-1,4lambda^5-azaphosphinan-4-one]: the IC50 came out at 6.3 nM.

As to `COCC(F)(F)c1cccc([C@@H](C)Nc2nc(C)nc3cnc(P4(=O)CCN(C(C)=O)CC4)cc23)c1` [Example 143, 1-acetyl-4-[4-({(1R)-1-[3-(1,1-difluoro-2-methoxyethyl)phenyl]ethyl}amino)-2-methylpyrido[3,4-d]pyrimidin-6-yl]-1,4lambda^5-azaphosphinan-4-one], the IC50 came to 12.6 nM.

In the case of `COc1nc2nc(C)nc(N[C@H](C)c3cccc(C(F)(F)F)c3C)c2cc1P1(=O)CCN(C(C)=O)CC1` [Example 144, 1-acetyl-4-[7-methoxy-2-methyl-4-({(1R)-1-[2-methyl-3-(trifluoromethyl)phenyl]ethyl}amino)pyrido[2,3-d]pyrimidin-6-yl]-1,4lambda^5-azaphosphinan-4-one], the IC50 came to 1.97 nM.

With `CC(=O)N1CCP(=O)(c2cc3c(N[C@H](C)c4cccc(C(F)(F)F)c4C)nc(C)nc3nc2C)CC1` [Example 145, 1-acetyl-4-[2,7-dimethyl-4-({(1R)-1-[2-methyl-3-(trifluoromethyl)phenyl]ethyl}amino)pyrido[2,3-d]pyrimidin-6-yl]-1,4lambda^5-azaphosphinan-4-one], the IC50 was found to be 4.35 nM.

As for `CC(=O)N1CCP(=O)(c2cc3c(N[C@H](C)c4cccc(C(F)(F)F)c4C)nc(C)nc3c(C)n2)CC1` [Example 146, (R)-1-(4-(2,8-dimethyl-4-((1-(2-methyl-3-(trifluoromethyl)phenyl)ethyl)amino)pyrido[3,4-d]pyrimidin-6-yl)-4-oxido-1,4-azaphosphinan-1-yl)ethan-1-one], the IC50 is 81 nM.

For the compound `CC(=O)N1CCP(=O)(c2cnc3nc(C)nc(N[C@H](C)c4cccc(C(F)(F)F)c4C)c3c2)CC1` [Example 147, 1-acetyl-4-[2-methyl-4-({(1R)-1-[2-methyl-3-(trifluoromethyl)phenyl]ethyl}amino)pyrido[2,3-d]pyrimidin-6-yl]-1,4lambda^5-azaphosphinan-4-one], the IC50 came to 4.51 nM.

Take `CO[C@@H](C)C(=O)N1CCP(=O)(c2cc3c(N[C@H](C)c4cccc(C(F)F)c4F)nc(C)nc3cn2)CC1` [Example 149, 4-[4-{{(1R)-1-[3-(difluoromethyl)-2-fluorophenyl]ethyl}amino)-2-methylpyrido[3,4-d]pyrimidin-6-yl]-1-[(2S)-2-methoxypropanoyl]-1,4lambda^5-azaphosphinan-4-one]: the IC50 was 18 nM.

As to `Cc1nc(N[C@H](C)c2cccc(C(F)F)c2F)c2cc(P3(=O)CCN(C(=O)[C@@H](C)O)CC3)ncc2n1` [Example 150, 4-[4-{{(1R)-1-[3-(difluoromethyl)-2-fluorophenyl]ethyl}amino)-2-methylpyrido[3,4-d]pyrimidin-6-yl]-1-[(2R)-2-hydroxypropanoyl]-1,4lambda^5-azaphosphinan-4-one], the IC50 was 4.76 nM.

For the compound `Cc1nc(N[C@H](C)c2cccc(C(F)F)c2F)c2cc(P3(=O)CCN(C(=O)C4(F)CC4)CC3)ncc2n1` [Example 151, 4-[4-{{(1R)-1-[3-(difluoromethyl)-2-fluorophenyl]ethyl}amino)-2-methylpyrido[3,4-d]pyrimidin-6-yl]-1-(1-fluorocyclopropane-1-carbonyl)-1,4lambda^5-azaphosphinan-4-one], the IC50 was determined as 12.2 nM.

On to `Cc1nc(N[C@H](C)c2cccc(C(F)F)c2F)c2cc(P3(=O)CCN(C(=O)C4(C#N)CC4)CC3)ncc2n1` [Example 152, 1-{4-[4-{{(1R)-1-[3-(difluoromethyl)-2-fluorophenyl]ethyl}amino)-2-methylpyrido[3,4-d]pyrimidin-6-yl]-4-oxo-1,4lambda5-azaphosphinane-1-carbonyl}cyclopropane-1-carbonitrile], for which the IC50 came out at 12.7 nM.

Take `Cc1nc(N[C@H](C)c2cccc(C(F)F)c2F)c2cc(P3(=O)CCN(C(=O)C(C)C)CC3)ncc2n1` [Example 153, 4-[4-({(1R)-1-[3-(difluoromethyl)-2-fluorophenyl]ethyl}amino)-2-methylpyrido[3,4-d]pyrimidin-6-yl]-1-(2-methylpropanoyl)-1,4lambda^5-azaphosphinan-4-one]: the IC50 is 7.4 nM.

For `COCC(=O)N1CCP(=O)(c2cc3c(N[C@H](C)c4cccc(C(F)F)c4F)nc(C)nc3cn2)CC1` [Example 154, 4-[4-{{(1R)-1-[3-(difluoromethyl)-2-fluorophenyl]ethyl}amino)-2-methylpyrido[3,4-d]pyrimidin-6-yl]-1-(methoxyacetyl)-1,4lambda^5-azaphosphinan-4-one], the IC50 was 6.15 nM.

As for `CO[C@H](C)C(=O)N1CCP(=O)(c2cc3c(N[C@H](C)c4cccc(C(F)F)c4F)nc(C)nc3cn2)CC1` [Example 155, 4-[4-{{(1R)-1-[3-(difluoromethyl)-2-fluorophenyl]ethyl}amino)-2-methylpyrido[3,4-d]pyrimidin-6-yl]-1-[(2R)-2-methoxypropanoyl]-1,4lambda^5-azaphosphinan-4-one], the IC50 was determined as 11.1 nM.

Turning to `Cc1nc(N[C@H](C)c2cccc(C(F)F)c2F)c2cc(P3(=O)CCN(C(=O)C4(O)CC4)CC3)ncc2n1` [Example 156, 4-[4-{{(1R)-1-[3-(difluoromethyl)-2-fluorophenyl]ethyl}amino)-2-methylpyrido[3,4-d]pyrimidin-6-yl]-1-(1-hydroxycyclopropane-1-carbonyl)-1,4lambda^5-azaphosphinan-4-one], the IC50 was found to be 11.4 nM.

With `Cc1nc(N[C@H](C)c2cccc(C(F)F)c2F)c2cc(P3(=O)CCN(C(=O)[C@H](C)O)CC3)ncc2n1` [Example 157, 4-[4-{{(1R)-1-[3-(difluoromethyl)-2-fluorophenyl]ethyl}amino)-2-methylpyrido[3,4-d]pyrimidin-6-yl]-1-[(2S)-2-hydroxypropanoyl]-1,4lambda^5-azaphosphinan-4-one], the half-maximal inhibitory concentration (IC50) was 5.04 nM.

As for `Cc1nc(N[C@H](C)c2cccc(C(F)F)c2F)c2cc(P3(=O)CCN(C(=O)C4COC4)CC3)ncc2n1` [Example 158, 4-[4-{{(1R)-1-[3-(difluoromethyl)-2-fluorophenyl]ethyl}amino)-2-methylpyrido[3,4-d]pyrimidin-6-yl]-1-(oxetane-3-carbonyl)-1,4lambda^5-azaphosphinan-4-one], the IC50 was found to be 7.89 nM.

As to `Cc1nc(N[C@H](C)c2cccc(C(F)F)c2F)c2cc(P3(=O)CCN(C(=O)C4(C(F)F)CC4)CC3)ncc2n1` [Example 159, 1-[1-(difluoromethyl)cyclopropane-1-carbonyl]-4-[4-{{(1R)-1-[3-(difluoromethyl)-2-fluorophenyl]ethyl}amino)-2-methylpyrido[3,4-d]pyrimidin-6-yl]-1,4lambda^5-azaphosphinan-4-one], the IC50 came out at 12.7 nM.

Turning to `Cc1nc(N[C@H](C)c2cccc(C(F)F)c2F)c2cc(P3(=O)CCN(C(=O)C4CC(F)(F)C4)CC3)ncc2n1` [Example 160, 1-(3,3-difluorocyclobutane-1-carbonyl)-4-[4-({(1R)-1-[3-(difluoromethyl)-2-fluorophenyl]ethyl}amino)-2-methylpyrido[3,4-d]pyrimidin-6-yl]-1,4lambda^5-azaphosphinan-4-one], the IC50 stood at 7.87 nM.

As to `Cc1nc(N[C@H](C)c2cccc(C(F)F)c2F)c2cc(P3(=O)CCN(C(=O)c4cnn(C)c4)CC3)ncc2n1` [Example 161, 4-[4-{{(1R)-1-[3-(difluoromethyl)-2-fluorophenyl]ethyl}amino)-2-methylpyrido[3,4-d]pyrimidin-6-yl]-1-(1-methyl-1H-pyrazole-4-carbonyl)-1,4lambda^5-azaphosphinan-4-one], the IC50 came out at 13.4 nM.

As for `Cc1nc(N[C@H](C)c2cccc(C(F)(F)F)c2C)c2cc(P3(=O)CCN(C(=O)CC#N)CC3)ncc2n1` [Example 162, 3-{4-[2-methyl-4-({(1R)-1-[2-methyl-3-(trifluoromethyl)phenyl]ethyl}amino)pyrido[3,4-d]pyrimidin-6-yl]-4-oxo-1,4lambda^5-azaphosphinan-1-yl}-3-oxopropanenitrile], the IC50 worked out at 272 nM.

`Cc1nc(N[C@H](C)c2cccc(C(F)F)c2F)c2cc(P3(=O)CCN(C(=O)C4CC4)CC3)ncc2n1` [Example 163, 1-(cyclopropanecarbonyl)-4-[4-({(1R)-1-[3-(difluoromethyl)-2-fluorophenyl]ethyl}amino)-2-methylpyrido[3,4-d]pyrimidin-6-yl]-1,4lambda^5-azaphosphinan-4-one]: the IC50 was 4.77 nM.

Regarding `Cc1nc(N[C@H](C)c2cccc(C(F)(F)F)c2C)c2cc(P3(=O)CCN(C(=O)C4COC4)CC3)ncc2n1` [Example 164, 4-[2-methyl-4-{{(1R)-1-[2-methyl-3-(trifluoromethyl)phenyl]ethyl}amino)pyrido[3,4-d]pyrimidin-6-yl]-1-(oxetane-3-carbonyl)-1,4lambda^5-azaphosphinan-4-one], the IC50 came out at 7.01 nM.

As to `Cc1nc(N[C@H](C)c2cccc(C(F)(F)F)c2C)c2cc(P3(=O)CCN(C(=O)[C@H](C)O)CC3)ncc2n1` [Example 165, 1-[(2S)-2-hydroxypropanoyl]-4-[2-methyl-4-{{(1R)-1-[2-methyl-3-(trifluoromethyl)phenyl]ethyl}amino)pyrido[3,4-d]pyrimidin-6-yl]-1,4lambda^5-azaphosphinan-4-one], the IC50 worked out at 4.37 nM.

Turning to `Cc1nc(N[C@H](C)c2cccc(C(F)(F)F)c2C)c2cc(P3(=O)CCN(C(=O)[C@@H](C)O)CC3)ncc2n1` [Example 166, 1-[(2R)-2-hydroxypropanoyl]-4-[2-methyl-4-{{(1R)-1-[2-methyl-3-(trifluoromethyl)phenyl]ethyl}amino)pyrido[3,4-d]pyrimidin-6-yl]-1,4lambda^5-azaphosphinan-4-one], the IC50 is 4.83 nM.
